Where “and” joins values, the source holds several entries; their conditions need not be identical. Equal entries are not always repeated.
Columns and labels:
[1] = tested on: Aerobes; test: Preservative action in cosmetic products (Antimicrobial Effectiveness Testing USP 24th Edition), aerobes; type: cell-based; conditions: Example 10, oil in water emulsion with non-ionic surfactant, 0.2 g/kg
Description: (§1) (1) Determination of Preservative Action in Cosmetic Products. […] This assay consists of the contamination of the protecting formulations with an inoculum mixture of 10^8 cfu/ml concentration, for each of the micro-organisms, and the determination of the number of viable cells in time. This inoculum mixture is composed of the following microorganisms: [table] The cosmetic composition to be analysed is divided into sterile containers with 50 g of product for each flask. Each container is inoculated with 0.5 ml of inoculum (10^8 cfu/ml). The target concentration is 10^6 cfu/ml, approximately. All the containers are kept at a temperature between 20-25° C. and are protected from light. The level of the microbial contamination is checked at 0 hours, 7 days, 14 days and 28 days. The number of colonies is evaluated by dilution in buffer peptone with the appropriate neutraliser agent of the preservative. The culture media used for counting the microorganisms are: […] (2) Determination of Preservative Action in Chicken Breast. Process of Preparation • 1. Fresh chicken breast was diced to pieces • 2. Brine (8.70% sodium chloride and 4.35% tripolyphosphate in water) was added to the fresh chicken in an amount of 11.5 g brine per 88.5 g meat in the control preparation and 11.5 g brine and 88.4 g meat in the preparations treated with preservative. • 3. Brine and meat were mixed during 15 minutes, in the preparations treated with preservative the preservative was added after 14 minutes in an amount of 0.2 g/kg. • 4. Vacuum refrigerate tumbling was made during 30 minutes. • 5. Samples were vacuum-packed in sterile bags and they were cooked at 85° C. for 30 minutes. • 6. The cooked chicken was refrigerated at 4° C. • 7. The cooked chicken was diced in irregular shapes. • 8. Then, the nuggets were stored at 10° C. in sterile vacuum-packed bags. Analysis

[2] = tested on: Yeast; test: Preservative action in cosmetic products (Antimicrobial Effectiveness Testing USP 24th Edition), yeast; type: cell-based, Candida albicans; conditions: Example 10, oil in water emulsion with non-ionic surfactant, 0.2 g/kg
Description: as §1

[3] = tested on: Moulds; test: Preservative action in cosmetic products (Antimicrobial Effectiveness Testing USP 24th Edition), moulds; type: cell-based, Aspergillus niger; conditions: Example 10, oil in water emulsion with non-ionic surfactant, 0.2 g/kg
Description: as §1

[4] = tested on: aerobic total count; test: Preservative action in cooked chicken breast, aerobic total count; type: cell-based; conditions: Example 9, cooked chicken, 0.2 g/kg
Experimental: (2) Determination of Preservative Action in Chicken Breast. Process of Preparation • 1. Fresh chicken breast was diced to pieces • 2. Brine (8.70% sodium chloride and 4.35% tripolyphosphate in water) was added to the fresh chicken in an amount of 11.5 g brine per 88.5 g meat in the control preparation and 11.5 g brine and 88.4 g meat in the preparations treated with preservative. • 3. Brine and meat were mixed during 15 minutes, in the preparations treated with preservative the preservative was added after 14 minutes in an amount of 0.2 g/kg. • 4. Vacuum refrigerate tumbling was made during 30 minutes. • 5. Samples were vacuum-packed in sterile bags and they were cooked at 85° C. for 30 minutes. • 6. The cooked chicken was refrigerated at 4° C. • 7. The cooked chicken was diced in irregular shapes. • 8. Then, the nuggets were stored at 10° C. in sterile vacuum-packed bags. Analysis […] Dilutions were made in buffered peptone water. Tryptone Soya Agar was harvested with each dilution and incubated at 35° C. for 48 hours. The mean value in log cfu/g of three samples per treatment and day of analysis was calculated.

[5] = day 56 (8 weeks), mean of triplicate

## CC(=O)O.CCCCCCCCCCCC(=O)N[C@@H](CCCN=C(N)N)C(=O)OCC [LAE Ac, LAE acetate]
[1]; 0 days
  Aerobes count: 6.0 log cfu/g
[1]; 7 days
  Aerobes count: 2.5 log cfu/g
[1]; 14 days
  Aerobes count: <2.0 log cfu/g
[2]; 0 days
  Yeast count: 5.3 log cfu/g
[2]; 7 days
  Yeast count: 2.1 log cfu/g
[2]; 14 days
  Yeast count: <2.0 log cfu/g
[3]; 0 days
  Moulds count: 4.1 log cfu/g
[3]; 7 days
  Moulds count: <2.0 log cfu/g
[3]; 14 days
  Moulds count: <2.0 log cfu/g
[4]; day 0, mean of triplicate
  aerobic total count, mean: 2.0 log cfu/g
[4]; day 0, samples 1-3
  aerobic total count: 2.0 log cfu/g
[4]; day 7, mean of triplicate
  aerobic total count, mean: 2.0 log cfu/g
[4]; day 7, samples 1-3
  aerobic total count: 2.0 log cfu/g
[4]; day 14, mean of triplicate
  aerobic total count, mean: 2.0 log cfu/g
[4]; day 14, samples 1-3
  aerobic total count: 2.0 log cfu/g
[4]; day 21, mean of triplicate
  aerobic total count, mean: 2.1 log cfu/g
[4]; day 21, samples 1-3
  aerobic total count: 2.1 log cfu/g and 2.3 log cfu/g and 2.0 log cfu/g
[4]; day 28, mean of triplicate
  aerobic total count, mean: 2.5 log cfu/g
[4]; day 28, samples 1-3
  aerobic total count: 3.0 log cfu/g and 2.1 log cfu/g and 2.3 log cfu/g
[4]; day 35, mean of triplicate
  aerobic total count, mean: 2.5 log cfu/g
[4]; day 35, samples 1-3
  aerobic total count: 2.3 log cfu/g and 2.8 log cfu/g and 2.5 log cfu/g
[4]; day 42, mean of triplicate
  aerobic total count, mean: 3.1 log cfu/g
[4]; day 42, samples 1-3
  aerobic total count: 3.1 log cfu/g and 2.8 log cfu/g and 3.3 log cfu/g
[4]; day 49, mean of triplicate
  aerobic total count, mean: 3.4 log cfu/g
[4]; day 49, samples 1-3
  aerobic total count: 3.3 log cfu/g and 3.0 log cfu/g and 3.9 log cfu/g
[4]; [5]
  aerobic total count, mean: 3.9 log cfu/g
[4]; day 56, samples 1-3
  aerobic total count: 3.8 log cfu/g and 4.0 log cfu/g and 3.9 log cfu/g

## CCCCCCCCCCCC(=O)N[C@@H](CCCN=C(N)N)C(=O)OCC.N[C@@H](CCC(=O)O)C(=O)O [LAE Gl, LAE glutamate]
[1]; 0 days
  Aerobes count: 6.1 log cfu/g
[1]; 7 days
  Aerobes count: 2.3 log cfu/g
[1]; 14 days
  Aerobes count: <2.0 log cfu/g
[2]; 0 days
  Yeast count: 5.6 log cfu/g
[2]; 7 days
  Yeast count: 2.4 log cfu/g
[2]; 14 days
  Yeast count: <2.0 log cfu/g
[3]; 0 days
  Moulds count: 4.1 log cfu/g
[3]; 7 days
  Moulds count: <2.0 log cfu/g
[3]; 14 days
  Moulds count: <2.0 log cfu/g
[4]; day 0, mean of triplicate
  aerobic total count, mean: 2.0 log cfu/g
[4]; day 0, samples 1-3
  aerobic total count: 2.0 log cfu/g
[4]; day 7, mean of triplicate
  aerobic total count, mean: 2.0 log cfu/g
[4]; day 7, samples 1-3
  aerobic total count: 2.0 log cfu/g
[4]; day 14, mean of triplicate
  aerobic total count, mean: 2.0 log cfu/g
[4]; day 14, samples 1-3
  aerobic total count: 2.0 log cfu/g
[4]; day 21, mean of triplicate
  aerobic total count, mean: 2.1 log cfu/g
[4]; day 21, samples 1-3
  aerobic total count: 2.1 log cfu/g and 2.2 log cfu/g and 2.0 log cfu/g
[4]; day 28, mean of triplicate
  aerobic total count, mean: 2.3 log cfu/g
[4]; day 28, samples 1-3
  aerobic total count: 2.5 log cfu/g and 2.1 log cfu/g and 2.2 log cfu/g
[4]; day 35, mean of triplicate
  aerobic total count, mean: 2.4 log cfu/g
[4]; day 35, samples 1-3
  aerobic total count: 2.3 log cfu/g and 2.5 log cfu/g
[4]; day 42, mean of triplicate
  aerobic total count, mean: 2.7 log cfu/g
[4]; day 42, samples 1-3
  aerobic total count: 2.6 log cfu/g and 2.8 log cfu/g
[4]; day 49, mean of triplicate
  aerobic total count, mean: 3.2 log cfu/g
[4]; day 49, samples 1-3
  aerobic total count: 3.2 log cfu/g and 3.0 log cfu/g and 3.5 log cfu/g
[4]; [5]
  aerobic total count, mean: 3.5 log cfu/g
[4]; day 56, samples 1-3
  aerobic total count: 3.5 log cfu/g and 3.8 log cfu/g and 3.3 log cfu/g

## CC(O)C(=O)O.CCCCCCCCCCCC(=O)N[C@@H](CCCN=C(N)N)C(=O)OCC [LAE La, LAE lactate]
[1]; 0 days
  Aerobes count: 6.1 log cfu/g
[1]; 7 days
  Aerobes count: 2.2 log cfu/g
[1]; 14 days
  Aerobes count: <2.0 log cfu/g
[2]; 0 days
  Yeast count: 5.4 log cfu/g
[2]; 7 days
  Yeast count: 2.2 log cfu/g
[2]; 14 days
  Yeast count: <2.0 log cfu/g
[3]; 0 days
  Moulds count: 4.2 log cfu/g
[3]; 7 days
  Moulds count: <2.0 log cfu/g
[3]; 14 days
  Moulds count: <2.0 log cfu/g
[4]; day 0, mean of triplicate
  aerobic total count, mean: 2.0 log cfu/g
[4]; day 0, samples 1-3
  aerobic total count: 2.0 log cfu/g
[4]; day 7, mean of triplicate
  aerobic total count, mean: 2.0 log cfu/g
[4]; day 7, samples 1-3
  aerobic total count: 2.0 log cfu/g
[4]; day 14, mean of triplicate
  aerobic total count, mean: 2.0 log cfu/g
[4]; day 14, samples 1-3
  aerobic total count: 2.0 log cfu/g
[4]; day 21, mean of triplicate
  aerobic total count, mean: 2.2 log cfu/g
[4]; day 21, samples 1-3
  aerobic total count: 2.1 log cfu/g and 2.4 log cfu/g and 2.0 log cfu/g
[4]; day 28, mean of triplicate
  aerobic total count, mean: 2.3 log cfu/g
[4]; day 28, samples 1-3
  aerobic total count: 2.6 log cfu/g and 2.1 log cfu/g and 2.3 log cfu/g
[4]; day 35, mean of triplicate
  aerobic total count, mean: 2.7 log cfu/g
[4]; day 35, samples 1-3
  aerobic total count: 2.8 log cfu/g and 2.5 log cfu/g
[4]; day 42, mean of triplicate
  aerobic total count, mean: 3.3 log cfu/g
[4]; day 42, samples 1-3
  aerobic total count: 3.1 log cfu/g and 3.5 log cfu/g and 3.3 log cfu/g
[4]; day 49, mean of triplicate
  aerobic total count, mean: 3.6 log cfu/g
[4]; day 49, samples 1-3
  aerobic total count: 3.3 log cfu/g and 3.6 log cfu/g and 3.9 log cfu/g
[4]; [5]
  aerobic total count, mean: 4.1 log cfu/g
[4]; day 56, samples 1-3
  aerobic total count: 4.2 log cfu/g and 4.0 log cfu/g and 3.9 log cfu/g
